# Test results taken from US9193729B2, “Inhibiting transient receptor potential ion channel TRPA1” (Cubist Pharmaceuticals, Inc., priority 2011, dated 2015).
# “Also recorded” adds a separate entry of the source.
# Columns and labels:
# female rats = assay: 7-day i.p. repeat dose screening toxicity study; type: in vivo, rat; conditions: female rats, 50 mg/kg/day i.p. for 7 consecutive days
# Experimental: The compound of Formula (Ia) was evaluated in a 7-day repeat dose screening toxicity study in female rats. In order to maximize systemic exposure, rats were administered compound of Formula (Ia) i.p. at 50 mg/kg/day for 7 consecutive days, to obtain the results shown in FIG. 6. Clinical chemistry parameters were evaluated on Days 3 and 8. Histopathology was performed on select organs including the liver, kidney, spleen, and lung.
# rTRPA1 = rTRPA1 (Rattus norvegicus, UniProt Q6RI86); assay: Whole-cell patch clamp inhibition of rTRPA1; type: cell-based; conditions: rTRPA1, 10 micromolar AITC activation; read-out: IC50 Inward current
# Experimental: Data for TRPA1 inhibition and the selectivity of TRPA1 inhibition was obtained by this method for the compound of Formula (Ia) and included in Table 1 and Table 2. All currents were recorded in whole-cell configuration using EPC-9 and EPC-10 amplifiers and Patchmaster software (HEKA). […] The standard pipette solution consisted of 140 mM CsAsp, 10 mM EGTA, 10 mM HEPES, 2.27 mM MgCl2, 1.91 mM CaCl2, 4 mM MgATP, and 0.1-0.3 mM Na2GTP, with pH adjusted to 7.2 with CsOH. In addition, a solution containing 145 mM CsCl, 10 mM HEPES, 10 mM EGTA and 1 mM MgCl2 (pH 7.2 adjusted with CsOH) can be used. The standard bath solution contained 150 mM NaCl, 10 mM HEPES, 10 mM glucose, 4.5 mM KCl, 1 mM EGTA, 3 mM MgCl2, with pH adjusted to 7.4 with NaOH. In some instances, 2 mM CaCl2 was added in place of EGTA and the concentration of MgCl2 was reduced to 1 mM.
# Data were collected either by continuous recordings at −60 mV or by applying voltage ramps from a holding potential of 0 mV every 4 s. […] Inward and outward currents were analyzed from the ramps at −80 and 80 mV, respectively. […]
# Solutions were switched using a gravity-fed continuous focal perfusion system. […] Temperatures were confirmed using a thermistor (Warner Instruments, TA-29), with temperatures at the recorded cell estimated to be within +/−2° C. of those reported. […]
# [1] = system: CFA-induced cold allodynia; assay: Complete Freund's Adjuvant (CFA) cold allodynia rodent pain model; type: in vivo, rat; conditions: in words
# Experimental: The compound of Formula (Ia) is also active in rodent models of pain in vivo induced by cold allodynia following chronic Complete Freund's Adjuvant-induced inflammation, as described in Example 6. […] The compound of Formula (Ia), the comparator compound of Formula (II) and ketoprofen were tested by the CFA-induced pain test method reported in del Camino et al., J. Neurosci., 30(45):15165-15174, incorporated herein by reference in its entirety. Briefly, the hind paw is sensitized to cold temperature (allodynic), by administering 0.1 mL of Complete Freund's Adjuvant (CFA) is administered to the left hind paw. 2-3 days later, the time taken for the animal to lift its CFA-injected paw is recorded compared to its un-injected normal right hind paw. […] To avoid tissue damage the maximum cut-off time is 5 minutes. Animals that are allodynic (average PWL to the first three pain behaviors<150 seconds for the CFA-injected hind paw: ˜≧50% difference between the normal and CFA-injected paw) are included in the study and subsequently randomized across treatment groups. The following day, the animals are dosed under blinded conditions. Following the 1-2 hour pre-treatment time, the post-dose PWL readings are again taken. The efficacy of the drug treatment is assessed by comparing the PWL in the drug treatment animals to those animals that receive the vehicle.
# [2] = system: formalin-induced pain behavior; assay: Formalin-induced pain behavior in vivo rodent model; set-up: species or system rat; conditions: i.p. administration, in words
# Excerpt: The data shown in Tables 3a, 3b, and 3c and FIG. 2 were obtained by administering a pharmaceutical composition comprising the compound of Formula (Ia) to rodents in the formalin-induced pain duration at various doses according to Example 5. Specifically, the data in Tables 3a, 3b, and 3c and FIG. 2 were obtained by intraperitoneal (i.p.) administration of compositions containing different concentrations of the compound of Formula (Ia), a comparator composition containing recited amounts of the comparator compound (e.g., 150 mg/kg of the comparator compound of Formula (II) in Table 3a) and a control composition containing the vehicle (e.g., without the compound of Formula (Ia) or a comparator compound).
# The compound of Formula (Ia) and the comparator compounds of Formula (II) and Formula (III) were tested in the formalin-induced pain test reported by Dubuisson et al., Pain 1977 December; 4(2):161-74 (incorporated herein by reference in its entirety). Dubuisson et al. (1977) describe a method for assessing pain and analgesia in rats and cats. Briefly, dilute formalin (50 μL of 3% formalin) is injected into the plantar surface of the hind paw. […] The individual responsible for counting the pain behaviors in a particular study is blinded to the treatment groups.
# Rats were treated with the HCl salt of Compound (Ia) at various doses (3, 10, 30, and 50 mg/kg, IP) or with the vehicle (IP).
# [3] = system: serum biomarkers of hepatotoxicity; assay: Hepatotoxicity serum biomarker study in dogs, oral dose; type: in vivo, dog; conditions: dogs, 50 mg/kg PO
# Experimental: The compound of Formula (Ia) was orally dosed to […] at dose levels of 5, 15 or 50 mg/kg using 30% Sulfobutylether β-cyclodextrin as the vehicle for assessment of safety as measured via serum chemistry biomarkers of hepatotoxicity or bile duct injury FIG. 5A, showing measurements of alanine aminotranferease [ALT], aspartate aminotranferease [AST], alkaline phosphatase [ALP] and gamma-glutamyl transferase [GGT] in the dogs at each dose level (each bar represents a measurement from 1 dog in the study). […] For example, the ALT levels were elevated up to about 60-fold in male dogs and up to about 130-fold in female beagle dogs following a single PO dose of 50 mg/kg.
# Sequence of rTRPA1 (Q6RI86 whole entry): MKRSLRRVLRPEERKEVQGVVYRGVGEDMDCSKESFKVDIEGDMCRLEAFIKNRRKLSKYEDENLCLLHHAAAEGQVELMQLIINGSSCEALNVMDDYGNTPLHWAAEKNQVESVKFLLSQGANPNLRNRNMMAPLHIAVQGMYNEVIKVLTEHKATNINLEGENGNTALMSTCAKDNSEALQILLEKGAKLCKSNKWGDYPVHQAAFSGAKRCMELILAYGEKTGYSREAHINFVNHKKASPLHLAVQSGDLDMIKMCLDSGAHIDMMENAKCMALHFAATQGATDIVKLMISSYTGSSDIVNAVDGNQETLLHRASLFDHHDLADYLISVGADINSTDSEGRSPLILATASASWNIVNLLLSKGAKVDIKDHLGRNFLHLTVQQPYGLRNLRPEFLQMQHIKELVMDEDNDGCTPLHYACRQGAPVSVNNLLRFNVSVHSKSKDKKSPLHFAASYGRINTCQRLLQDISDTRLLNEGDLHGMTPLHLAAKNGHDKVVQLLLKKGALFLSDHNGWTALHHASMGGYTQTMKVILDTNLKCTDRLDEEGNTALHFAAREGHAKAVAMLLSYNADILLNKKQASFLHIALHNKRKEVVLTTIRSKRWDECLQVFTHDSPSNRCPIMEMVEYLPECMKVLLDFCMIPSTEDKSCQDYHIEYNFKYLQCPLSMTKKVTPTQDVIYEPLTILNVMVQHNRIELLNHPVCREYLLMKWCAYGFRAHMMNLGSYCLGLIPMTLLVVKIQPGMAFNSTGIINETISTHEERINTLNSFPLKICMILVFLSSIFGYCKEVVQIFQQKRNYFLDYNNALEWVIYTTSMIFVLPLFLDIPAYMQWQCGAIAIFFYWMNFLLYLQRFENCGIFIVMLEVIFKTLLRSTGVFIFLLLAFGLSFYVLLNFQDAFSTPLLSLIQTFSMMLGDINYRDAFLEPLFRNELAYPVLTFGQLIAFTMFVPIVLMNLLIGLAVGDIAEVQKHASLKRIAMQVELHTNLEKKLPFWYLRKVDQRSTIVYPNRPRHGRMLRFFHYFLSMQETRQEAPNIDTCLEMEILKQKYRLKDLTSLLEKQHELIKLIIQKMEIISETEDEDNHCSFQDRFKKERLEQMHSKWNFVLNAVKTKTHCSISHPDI
structure (smiles),measurement,setting,value
C[C@H]1CCCN1c1ncc(-c2cccc(NC(=O)Cn3cnc4c3c(=O)n(C)c(=O)n4C)n2)cn1 [Formula (Ia)],"histopathology of liver, kidney, spleen, lung",female rats; 50 mg/kg/day,"No histopathological findings in the liver, kidney, spleen, or lung; also recorded: no adverse effects"
same,"clinical signs, body weight, clinical chemistry parameters",female rats; Days 3 and 8,"no adverse clinical signs, changes in body weight, or changes in clinical chemistry parameters were noted"
same,IC50,rTRPA1,~100 nM
same,effect on cold allodynia,[1],has an analgesic effect on cold allodynia
same,duration of pain behavior compared with vehicle,[2],shorter durations of pain behavior than those treated with the vehicle
same,"serum biomarkers of hepatotoxicity (ALT, AST, ALP, GGT)",[3],did not elevate serum biomarkers of hepatotoxicity or acute phase response
